Measured values taken from the supplement of paper PMC10307832.

What was measured:
Assay in all cases: relative viability (nuclei count vs DMSO), 5 days (fraction); higher = more cells survive
HCC-78 = tested on: HCC-78
Summary of the method: (§1)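 Dosing by pin tool came one day after lung cancer cell lines were seeded in 1536-well plates, using either one drug or a fixed anchor-drug dose plus five library-drug doses (not always all listed) in √10 steps. After 5 days, nuclei were counted on 4× images. Relative viability is treated-well nuclei count divided by vehicle-well nuclei count, and values are medians of duplicate plates.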

LCLC-97TM1 = tested on: LCLC-97TM1
Summary of the method: as §1

NCI-H2009 = tested on: NCI-H2009
Summary of the method: as §1

NCI-H1993 = tested on: NCI-H1993
Summary of the method: as §1

A-427 = tested on: A-427
Summary of the method: as §1

ChaGo-K-1 = tested on: ChaGo-K-1
Summary of the method: as §1

201T = tested on: 201T
Summary of the method: as §1

SW 1573 = tested on: SW 1573
Summary of the method: as §1

COR-L23 = tested on: COR-L23
Summary of the method: as §1

NCI-H650 = tested on: NCI-H650
Summary of the method: as §1

NCI-H460 = tested on: NCI-H460
Summary of the method: as §1

NCI-H1650 = tested on: NCI-H1650
Summary of the method: as §1

HARA = tested on: HARA
Summary of the method: as §1

HCC-15 = tested on: HCC-15
Summary of the method: as §1

NCI-H2023 = tested on: NCI-H2023
Summary of the method: as §1

HCC-366 = tested on: HCC-366
Summary of the method: as §1

LCLC-103H = tested on: LCLC-103H
Summary of the method: as §1

NCI-H2126 = tested on: NCI-H2126
Summary of the method: as §1

HCC-44 = tested on: HCC-44
Summary of the method: as §1

NCI-H441 = tested on: NCI-H441
Summary of the method: as §1

LOU-NH91 = tested on: LOU-NH91
Summary of the method: as §1

NCI-H1734 = tested on: NCI-H1734
Summary of the method: as §1

RERF-LC-KJ = tested on: RERF-LC-KJ
Summary of the method: as §1

SMILES: O=c1[nH]c2ccccc2n1C1CCN(CCCC(c2ccc(F)cc2)c2ccc(F)cc2)CC1 [Pimozide] + CC(=O)Nc1cccc(-n2c(=O)n(C3CC3)c(=O)c3c(Nc4ccc(I)cc4F)n(C)c(=O)c(C)c32)c1 [Trametinib] (partner 0.02 µM)
- relative viability (HCC-78; first compound 0.08 µM): 0.704
- relative viability (HCC-78; first compound 0.8 µM): 0.688
- relative viability (HCC-78; first compound 2.53 µM): 0.776
- relative viability (HCC-78; first compound 8 µM): 0.757
- relative viability (LCLC-97TM1; first compound 0.08 µM): 0.191
- relative viability (LCLC-97TM1; first compound 0.253 µM): 0.189
- relative viability (LCLC-97TM1; first compound 0.8 µM): 0.166
- relative viability (LCLC-97TM1; first compound 2.53 µM): 0.185
- relative viability (LCLC-97TM1; first compound 8 µM): 0.207
- relative viability (NCI-H2009; first compound 0.08 µM): 0.256
- relative viability (NCI-H2009; first compound 0.253 µM): 0.276
- relative viability (NCI-H2009; first compound 0.8 µM): 0.284
- relative viability (NCI-H2009; first compound 2.53 µM): 0.321
- relative viability (NCI-H2009; first compound 8 µM): 0.225
- relative viability (NCI-H1993; first compound 0.08 µM): 0.561
- relative viability (NCI-H1993; first compound 0.253 µM): 0.495
- relative viability (NCI-H1993; first compound 0.8 µM): 0.596
- relative viability (NCI-H1993; first compound 2.53 µM): 0.484
- relative viability (NCI-H1993; first compound 8 µM): 0.553
- relative viability (A-427; first compound 0.08 µM): 0.771
- relative viability (A-427; first compound 0.253 µM): 0.75
- relative viability (A-427; first compound 0.8 µM): 0.701
- relative viability (A-427; first compound 2.53 µM): 0.682
- relative viability (A-427; first compound 8 µM): 0.68
- relative viability (ChaGo-K-1; first compound 0.08 µM): 0.873
- relative viability (ChaGo-K-1; first compound 0.253 µM): 0.871
- relative viability (ChaGo-K-1; first compound 0.8 µM): 0.851
- relative viability (ChaGo-K-1; first compound 2.53 µM): 0.872
- relative viability (ChaGo-K-1; first compound 8 µM): 0.874
- relative viability (201T; first compound 0.08 µM): 0.717
- relative viability (201T; first compound 0.253 µM): 0.726
- relative viability (201T; first compound 0.8 µM): 0.7
- relative viability (201T; first compound 2.53 µM): 0.732
- relative viability (201T; first compound 8 µM): 0.686
- relative viability (SW 1573; first compound 0.08 µM): 0.645
- relative viability (SW 1573; first compound 0.253 µM): 0.448
- relative viability (SW 1573; first compound 0.8 µM): 0.394
- relative viability (SW 1573; first compound 2.53 µM): 0.308
- relative viability (SW 1573; first compound 8 µM): 0.344
- relative viability (COR-L23; first compound 0.08 µM): 0.541
- relative viability (COR-L23; first compound 0.253 µM): 0.596
- relative viability (COR-L23; first compound 0.8 µM): 0.602
- relative viability (COR-L23; first compound 2.53 µM): 0.629
- relative viability (COR-L23; first compound 8 µM): 0.478
- relative viability (NCI-H650; first compound 0.08 µM): 0.97
- relative viability (NCI-H650; first compound 0.253 µM): 0.962
- relative viability (NCI-H650; first compound 0.8 µM): 0.885
- relative viability (NCI-H650; first compound 2.53 µM): 1.06
- relative viability (NCI-H650; first compound 8 µM): 0.974
- relative viability (NCI-H460; first compound 0.08 µM): 0.239
- relative viability (NCI-H460; first compound 0.253 µM): 0.0857
- relative viability (NCI-H460; first compound 0.8 µM): 0.131
- relative viability (NCI-H460; first compound 2.53 µM): 0.185
- relative viability (NCI-H460; first compound 8 µM): 0.14
- relative viability (NCI-H1650; first compound 0.08 µM): 0.625
- relative viability (NCI-H1650; first compound 0.253 µM): 0.591
- relative viability (NCI-H1650; first compound 0.8 µM): 0.516
- relative viability (NCI-H1650; first compound 2.53 µM): 0.571
- relative viability (NCI-H1650; first compound 8 µM): 0.718
- relative viability (HARA; first compound 0.08 µM): 0.612
- relative viability (HARA; first compound 0.253 µM): 0.662
- relative viability (HARA; first compound 0.8 µM): 0.739
- relative viability (HARA; first compound 2.53 µM): 0.458
- relative viability (HARA; first compound 8 µM): 0.631
- relative viability (HCC-15; first compound 0.08 µM): 0.398
- relative viability (HCC-15; first compound 0.253 µM): 0.355
- relative viability (HCC-15; first compound 0.8 µM): 0.386
- relative viability (HCC-15; first compound 2.53 µM): 0.358
- relative viability (HCC-15; first compound 8 µM): 0.34
- relative viability (NCI-H2023; first compound 0.08 µM): 0.584
- relative viability (NCI-H2023; first compound 0.253 µM): 0.532
- relative viability (NCI-H2023; first compound 0.8 µM): 0.582
- relative viability (NCI-H2023; first compound 2.53 µM): 0.429
- relative viability (NCI-H2023; first compound 8 µM): 0.362
- relative viability (HCC-366; first compound 0.08 µM): 0.32
- relative viability (HCC-366; first compound 0.253 µM): 0.282
- relative viability (HCC-366; first compound 0.8 µM): 0.361
- relative viability (HCC-366; first compound 2.53 µM): 0.298
- relative viability (HCC-366; first compound 8 µM): 0.34
- relative viability (LCLC-103H; first compound 0.08 µM): 0.676
- relative viability (LCLC-103H; first compound 0.253 µM): 0.656
- relative viability (LCLC-103H; first compound 0.8 µM): 0.642
- relative viability (LCLC-103H; first compound 2.53 µM): 0.631
- relative viability (LCLC-103H; first compound 8 µM): 0.669
- relative viability (NCI-H2126; first compound 0.08 µM): 0.589
- relative viability (NCI-H2126; first compound 0.253 µM): 0.584
- relative viability (NCI-H2126; first compound 0.8 µM): 0.566
- relative viability (NCI-H2126; first compound 2.53 µM): 0.592
- relative viability (NCI-H2126; first compound 8 µM): 0.533
- relative viability (HCC-44; first compound 0.08 µM): 1.1
- relative viability (HCC-44; first compound 0.253 µM): 1.18
- relative viability (HCC-44; first compound 0.8 µM): 0.913
- relative viability (HCC-44; first compound 2.53 µM): 0.979
- relative viability (HCC-44; first compound 8 µM): 0.887
- relative viability (NCI-H441; first compound 0.08 µM): 0.425
- relative viability (NCI-H441; first compound 0.253 µM): 0.463
- relative viability (NCI-H441; first compound 0.8 µM): 0.335
- relative viability (NCI-H441; first compound 2.53 µM): 0.565
- relative viability (NCI-H441; first compound 8 µM): 0.315
- relative viability (LOU-NH91; first compound 0.08 µM): 0.649
- relative viability (LOU-NH91; first compound 0.253 µM): 0.822
- relative viability (LOU-NH91; first compound 0.8 µM): 0.755
- relative viability (LOU-NH91; first compound 2.53 µM): 0.841
- relative viability (LOU-NH91; first compound 8 µM): 0.819
- relative viability (NCI-H1734; first compound 0.08 µM): 0.685
- relative viability (NCI-H1734; first compound 0.253 µM): 0.697
- relative viability (NCI-H1734; first compound 0.8 µM): 0.734
- relative viability (NCI-H1734; first compound 2.53 µM): 0.657
- relative viability (NCI-H1734; first compound 8 µM): 0.673
- relative viability (RERF-LC-KJ; first compound 0.08 µM): 0.851
- relative viability (RERF-LC-KJ; first compound 0.253 µM): 0.778
- relative viability (RERF-LC-KJ; first compound 0.8 µM): 0.742
- relative viability (RERF-LC-KJ; first compound 2.53 µM): 0.764
- relative viability (RERF-LC-KJ; first compound 8 µM): 0.609
